pIC50: −log10 of the molar value.
Assays:
[1] = molecular target: T1, p-AXL (Homo sapiens, UniProt P30530); assay: Axl phosphorylation inhibition ELISA in HEK293T cells transfected with NanoLuc-tagged AXL; type: cell-based; settings: 1 h compound incubation, media (OptiMEM)
T1 construct: expressed in transfected cells; host or cells: HEK293T
T1 sequence (P30530 26-894): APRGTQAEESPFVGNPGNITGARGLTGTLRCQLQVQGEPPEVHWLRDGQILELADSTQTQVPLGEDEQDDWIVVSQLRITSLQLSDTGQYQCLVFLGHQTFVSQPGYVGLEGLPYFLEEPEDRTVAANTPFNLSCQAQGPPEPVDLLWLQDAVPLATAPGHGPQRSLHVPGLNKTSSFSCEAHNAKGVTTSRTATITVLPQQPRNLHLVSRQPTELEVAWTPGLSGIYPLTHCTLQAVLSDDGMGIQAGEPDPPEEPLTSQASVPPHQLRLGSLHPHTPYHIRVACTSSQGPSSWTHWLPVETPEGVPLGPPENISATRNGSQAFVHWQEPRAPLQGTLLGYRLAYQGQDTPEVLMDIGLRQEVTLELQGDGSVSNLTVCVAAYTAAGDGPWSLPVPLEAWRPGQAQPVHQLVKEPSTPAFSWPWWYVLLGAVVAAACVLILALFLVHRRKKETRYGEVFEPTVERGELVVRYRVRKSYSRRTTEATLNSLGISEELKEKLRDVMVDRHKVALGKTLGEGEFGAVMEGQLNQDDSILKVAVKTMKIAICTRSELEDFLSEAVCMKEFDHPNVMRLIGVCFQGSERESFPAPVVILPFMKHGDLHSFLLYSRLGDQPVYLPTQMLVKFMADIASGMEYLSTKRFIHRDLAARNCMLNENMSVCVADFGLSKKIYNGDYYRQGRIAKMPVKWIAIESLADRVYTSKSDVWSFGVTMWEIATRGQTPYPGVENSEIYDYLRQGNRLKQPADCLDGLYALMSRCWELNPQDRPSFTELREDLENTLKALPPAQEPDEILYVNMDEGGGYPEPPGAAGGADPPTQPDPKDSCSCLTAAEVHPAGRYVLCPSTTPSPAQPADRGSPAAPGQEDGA
How it was run: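 Phospho-AXL detected by luminescence of NanoLuc tag after capture of cell lysate on biotinylated anti-phospho-tyrosine mAb plates (2 h). Lysates came from transiently transfected HEK293T cells treated 1 h at 37° C with serial 2-fold dilutions (22 points). IC50 by standard 4-parameter logistic fitting.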

[2] = molecular target: T2, recombinant human MER (Homo sapiens, UniProt Q12866); assay: Biochemical potency, HTRF KinEASE-TK kinase assay; settings: 1 nM MER, 700 μM ATP
T2 construct: purchased Invitrogen
T2 sequence (Q12866 21-999): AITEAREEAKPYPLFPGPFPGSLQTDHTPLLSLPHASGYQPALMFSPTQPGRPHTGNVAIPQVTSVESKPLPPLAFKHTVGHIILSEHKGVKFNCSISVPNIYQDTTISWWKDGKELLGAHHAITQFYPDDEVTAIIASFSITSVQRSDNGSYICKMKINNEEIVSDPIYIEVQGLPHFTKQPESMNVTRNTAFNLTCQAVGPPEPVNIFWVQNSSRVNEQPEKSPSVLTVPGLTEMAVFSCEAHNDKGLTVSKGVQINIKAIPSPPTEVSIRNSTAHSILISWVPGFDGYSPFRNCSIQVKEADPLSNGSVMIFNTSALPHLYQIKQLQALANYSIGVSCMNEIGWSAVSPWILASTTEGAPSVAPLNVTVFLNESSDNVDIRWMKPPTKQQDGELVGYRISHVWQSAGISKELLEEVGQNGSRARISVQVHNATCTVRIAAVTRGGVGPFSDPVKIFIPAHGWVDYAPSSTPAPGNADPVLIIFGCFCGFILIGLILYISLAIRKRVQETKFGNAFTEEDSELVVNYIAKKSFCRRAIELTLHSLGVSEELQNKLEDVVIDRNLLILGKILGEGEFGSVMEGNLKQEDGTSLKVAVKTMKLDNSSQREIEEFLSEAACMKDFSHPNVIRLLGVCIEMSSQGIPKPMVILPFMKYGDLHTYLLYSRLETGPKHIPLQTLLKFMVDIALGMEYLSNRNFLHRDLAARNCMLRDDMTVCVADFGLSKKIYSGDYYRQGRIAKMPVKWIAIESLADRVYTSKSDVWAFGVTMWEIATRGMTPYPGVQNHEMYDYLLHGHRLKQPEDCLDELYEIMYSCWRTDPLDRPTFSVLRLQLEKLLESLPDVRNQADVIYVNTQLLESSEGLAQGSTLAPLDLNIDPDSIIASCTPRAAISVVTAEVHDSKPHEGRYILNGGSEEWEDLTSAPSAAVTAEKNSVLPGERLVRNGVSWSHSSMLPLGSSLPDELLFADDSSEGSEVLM
Experimental: Measurement of Biochemical Compound Potency of Axl Inhibitors
Purified recombinant human AXL, TYRO3 and MER proteins were purchased from Invitrogen™. 10 nM AXL, 2 nM TYRO3 or MER were incubated with varying concentrations of compounds in 50 mM HEPES, pH 7.4, 10 mM MgCl2, 0.01% BSA, 1 mM DTT and 2% DMSO in a total volume of 20 μl in a 384-well microplate (Corning™ #3640) at RT for 1 h. The AXL, TYRO3 and MER enzymatic reaction was initiated by transferring 10 μl of enzyme and compound mixture into 10 μl of 1.6 μM TK Substrate-biotin (HTRF® KinEASE-TK kit, Cisbio) and 1400 μM ATP pre-incubated in 50 mM HEPES, pH 7.4, 10 mM MgCl2, 0.01% BSA, 1 mM DTT in a 384-well microplate (Corning™ #3640) at RT, giving the final reaction conditions: 5 nM AXL, 1 nM TYRO3 or MER, 800 nM TK Substrate-biotin and 700 μM ATP in 50 mM HEPES, pH 7.4, 10 mM MgCl2, 0.01% BSA, 1 mM DTT and 1% DMSO with varying concentrations of compounds. Following 2 h incubation at RT, the AXL, TYRO3 and MER enzymatic reaction was stopped by transfer of 10 μl of reaction into 10 μl of detection mix (400 nM Streptavidin-XL665, 200-fold dilution TK Antibody-Cryptate and detection buffer, HTRF® KinEASE-TK kit, Cisbio) in a white 384-well microplate (Perkin Elmer, OptiPlate 384). After 1 h incubation at RT, the plate was put into a plate reader (Evision) to read at 665/620 nm (acceptor/donor) for HTRF. The value of the DMSO blank (MIN inhibition=100% activity) was used as a negative control. The positive control was established by adding 5 μl of enzyme and DMSO mixture into 10 μl of detection mix followed by addition of 5 μl of TK Substrate-biotin and ATP mixture (MAX inhibition=0% activity). To calculate the percent activity, Equation 1 was used. Ratio665/620 is the value at a given compound concentration: […]

[3] = molecular target: T3, Axl (Homo sapiens, UniProt P30530); assay: Biochemical potency, HTRF KinEASE-TK kinase assay; parameters: purchased Invitrogen; settings: 5 nM AXL, 700 μM ATP
T3 sequence (P30530 26-894): T1 sequence (P30530 26-894)
How it was run: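 Compounds preincubated 1 h at RT with enzyme in 50 mM HEPES pH 7.4, 10 mM MgCl2, 0.01% BSA, 1 mM DTT; reactions then ran 2 h at RT with 5 nM AXL or 1 nM TYRO3/MER, 800 nM TK substrate-biotin, 700 μM ATP, 1% DMSO. HTRF 665/620 ratio read; percent activity calculated.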

## Cc1nccnc1-c1ccc(-c2n[nH]c3ncc(-c4ccc5c(c4)CC[C@@H](N4C6COCC4C6)CC5)cc23)nc1 [Example 55, 6-[(7S)-2-{3-[5-(3-Methylpyrazin-2-yl)pyridin-2-yl]-1H-pyrazolo[3,4-b]pyridin-5-yl}-6,7,8,9-tetrahydro-5H-benzo[7]annulen-7-yl]-3-oxa-6-azabicyclo[3.1.1]heptane]
[1]
  pIC50: > 7.00
[2]
  pIC50: < 6.00
[3]
  pIC50: > 7.00

## Cc1ccc(C)c(-c2ccc(-c3n[nH]c4ncc(-c5ccc6c(c5)CC[C@@H](N5C7COC[C@H]5C7)CC6)cc34)nc2)n1 [Example 9, 3,6-Dimethyl-6′-{5-[(7S)-7-[(1R)-3-oxa-6-azabicyclo[3.1.1]heptan-6-yl]-6,7,8,9-tetrahydro-5H-benzo[7]annulen-2-yl]-1H-pyrazolo[3,4-b]pyridin-3-yl}-2,3′-bipyridine]
[1]
  pIC50: > 7.00
[2]
  pIC50: 6.00 to 7.00
[3]
  pIC50: > 7.00

## Cc1cccnc1-n1cc(-c2n[nH]c3ncc(-c4ccc5c(c4)CC[C@@H](N4C6COCC4C6)CC5)cc23)cn1 [Example 79, 6-[(7S)-2-{3-[1-(3-Methylpyridin-2-yl)-1H-pyrazol-4-yl]-1H-pyrazolo[3,4-b]pyridin-5-yl}-6,7,8,9-tetrahydro-5H-benzo[7]annulen-7-yl]-3-oxa-6-azabicyclo[3.1.1]heptane]
[1]
  pIC50: > 7.00
[2]
  pIC50: 6.00 to 7.00
[3]
  pIC50: > 7.00

## Cc1cccnc1-c1ccc(-c2n[nH]c3ncc(-c4ccc5c(c4)CC[C@@H](N4C6COCC4C6)CC5)cc23)nn1 [Example 17, 6-[(7S)-3-[3-[6-(3-Methylpyridin-2-yl)pyridazin-3-yl]-1H-pyrazolo[3,4-b]pyridin-5-yl]-6,7,8,9-tetrahydro-5H-benzo[7]annulen-7-yl]-3-oxa-6-azabicyclo[3.1.1]heptane]
[1]
  pIC50: > 7.00
[2]
  pIC50: 6.00 to 7.00
[3]
  pIC50: > 7.00

## O=C1OCCN1c1nccnc1-c1ccc(-c2n[nH]c3ncc(-c4ccc5c(c4)CC[C@@H](N4C6COCC4C6)CC5)cc23)cc1 [Example 126, 3-[3-(4-{5-[(7S)-7-{3-Oxa-6-azabicyclo[3.1.1]heptan-6-yl}-6,7,8,9-tetrahydro-5H-benzo[7]annulen-2-yl]-1H-pyrazolo[3,4-b]pyridin-3-yl}phenyl)pyrazin-2-yl]-1,3-oxazolidin-2-one]
[1]
  pIC50: 6.00 to 7.00
[2]
  pIC50: 6.00 to 7.00
[3]
  pIC50: > 7.00

— patent US12195482B1 (Arcus Biosciences, Inc., priority 2022, dated 2025)
